Bounds are passed on as bounds.

The first test addresses T1, myeloperoxidase (MPO) (Homo sapiens, UniProt P05164).
T1 sequence (P05164 49-745): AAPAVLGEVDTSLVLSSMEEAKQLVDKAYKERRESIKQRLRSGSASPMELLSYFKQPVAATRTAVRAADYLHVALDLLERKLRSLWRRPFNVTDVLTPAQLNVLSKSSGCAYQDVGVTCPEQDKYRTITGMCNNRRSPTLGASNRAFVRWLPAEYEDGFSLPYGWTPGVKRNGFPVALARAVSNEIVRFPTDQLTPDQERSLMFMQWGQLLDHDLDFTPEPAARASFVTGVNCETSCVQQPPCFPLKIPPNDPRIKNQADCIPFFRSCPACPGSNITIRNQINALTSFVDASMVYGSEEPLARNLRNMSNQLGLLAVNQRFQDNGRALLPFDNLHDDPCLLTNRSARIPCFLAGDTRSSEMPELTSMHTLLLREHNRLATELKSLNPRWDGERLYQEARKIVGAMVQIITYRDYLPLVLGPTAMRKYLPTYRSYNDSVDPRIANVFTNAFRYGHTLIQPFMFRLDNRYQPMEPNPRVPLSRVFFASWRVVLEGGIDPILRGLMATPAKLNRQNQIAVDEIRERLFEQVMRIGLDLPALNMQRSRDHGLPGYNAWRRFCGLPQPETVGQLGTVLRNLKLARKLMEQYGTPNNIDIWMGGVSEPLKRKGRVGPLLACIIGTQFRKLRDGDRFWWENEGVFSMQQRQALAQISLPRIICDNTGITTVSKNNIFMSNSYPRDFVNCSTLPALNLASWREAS
Nature of the test: MPO peroxidation assay (Amplex Red assay). The conditions noted are these: MPO peroxidation (Amplex Red), ranges given; read-out: MPO peroxidation assay IC50 values (binned). In kind it is biochemical. The protocol: MPO Peroxidation Assay (Amplex Red Assay)
MPO peroxidation activity was measured in 100 mM KPi (pH 7.4) by utilizing the non-fluorescent reagent Amplex Red (Invitrogen Cat. #A12222) which can be oxidized to the highly fluorescent resorufin. Amplex Red is oxidized by the peroxidase action of MPO to resorufin. […] Enzyme and compound were preincubated for ten minutes at room temperature.
After the ten minute preincubation, 25 μL of an Amplex Red mixture containing 200 μM Amplex Red and 10 mM H2O2 was added to the plate.
IC50 values were calculated by determining the slope of the linear portion of the kinetic trace (180-540 secs), and using that calculated slope to determine % inhibition occurring at each concentration of inhibitor using the following equation:
[formula] where A=minimal Y value (activity level of inhibited sample), B=maximal Y value (activity level of uninhibited sample), C=Log IC50, D=Hill Slope, x=concentration of inhibitor. MPO Chlorination Assay (APF Assay)
Regarding `Cc1nn(C2CCC(C)C2)nc1COc1cc(N)nc2[nH]nnc12` (mixture of isomers) [Example 72, 7-((5-Methyl-2-(3-methylcyclopentyl)-2H-1,2,3-triazol-4-yl)methoxy)-3H-[1,2,3]triazolo[4,5-b]pyridin-5-amine], the IC50 (usually the midpoint of a concentration-inhibition curve) is not above 60 nM. On the same count and under the same terms, the result for `Nc1cc(OCc2ccc3c(c2)OCO3)c2nn[nH]c2n1` [Example 1, 7-(Benzo[d][1,3]dioxol-5-ylmethoxy)-3H-[1,2,3]triazolo[4,5-b]pyridin-5-amine] reads not above 60 nM.

As to `Nc1cc(OCc2cccc3c2OCCO3)c2nn[nH]c2n1` [Example 2, 7-((2,3-Dihydrobenzo[b][1,4]dioxin-5-yl)methoxy)-3H-[1,2,3]triazolo[4,5-b]pyridin-5-amine], the IC50 was not above 60 nM. Regarding `Nc1cc(OCc2cccc3c2OC(F)(F)O3)c2nn[nH]c2n1` [Example 3, 7-((2,2-Difluorobenzo[d][1,3]dioxol-4-yl)methoxy)-3H-[1,2,3]triazolo[4,5-b]pyridin-5-amine], the concentration for half-maximal inhibition (IC50) was not above 60 nM.

For `Nc1cc(OCc2cccc(-c3cccc(F)c3)n2)c2nn[nH]c2n1` [Example 5, 7-((6-(3-Fluorophenyl)pyridin-2-yl)methoxy)-3H-[1,2,3]triazolo[4,5-b]pyridin-5-amine], the IC50 was in the range of 60 to 150 nM. Take `Nc1cc(OCc2cccc3cccnc23)c2nn[nH]c2n1` [Example 7, 7-(Quinolin-8-ylmethoxy)-3H-[1,2,3]triazolo[4,5-b]pyridin-5-amine]: the IC50 was not above 60 nM. On the same count and under the same terms, the result for `Cn1ncc2cccc(COc3cc(N)nc4[nH]nnc34)c21` [Example 8, 7-((1-Methyl-1H-indazol-7-yl)methoxy)-3H-[1,2,3]triazolo[4,5-b]pyridin-5-amine] reads not above 60 nM; that for `Cn1ncc2ccc(COc3cc(N)nc4[nH]nnc34)cc21` [Example 9, 7-((1-Methyl-1H-indazol-6-yl)methoxy)-3H-[1,2,3]triazolo[4,5-b]pyridin-5-amine], not above 60 nM; that for `Cc1nn(-c2ccc(F)cc2)nc1COc1cc(N)nc2[nH]nnc12` [Example 10, 7-((2-(4-Fluorophenyl)-5-methyl-2H-1,2,3-triazol-4-yl)methoxy)-3H-[1,2,3]triazolo[4,5-b]pyridin-5-amine], not above 60 nM. For `Nc1cc(OCc2cccc(C(F)(F)F)n2)c2nn[nH]c2n1` [Example 16, 7-((6-(Trifluoromethyl)pyridin-2-yl)methoxy)-3H-[1,2,3]triazolo[4,5-b]pyridin-5-amine], the half-maximal inhibitory concentration (IC50) is not above 60 nM. The same measure, in the same setting: next, `Cn1nc(COc2cc(N)nc3[nH]nnc23)cc1-c1ccccc1` [Example 17, 7-((1-Methyl-5-phenyl-1H-pyrazol-3-yl)methoxy)-3H-[1,2,3]triazolo[4,5-b]pyridin-5-amine]: not above 60 nM. On the same count and under the same terms, next, `Cn1nc(-c2ccccc2)cc1COc1cc(N)nc2[nH]nnc12` [Example 18, 7-((1-Methyl-3-phenyl-1H-pyrazol-5-yl)methoxy)-3H-[1,2,3]triazolo[4,5-b]pyridin-5-amine]: not above 60 nM; `CCn1nc(C(F)(F)F)cc1COc1cc(N)nc2[nH]nnc12` [Example 19, 7-((1-Ethyl-3-(trifluoromethyl)-1H-pyrazol-5-yl)methoxy)-3H-[1,2,3]triazolo[4,5-b]pyridin-5-amine]: not above 60 nM; `Cn1nc(C2CC2)cc1COc1cc(N)nc2[nH]nnc12` [Example 20, 7-((3-Cyclopropyl-1-methyl-1H-pyrazol-5-yl)methoxy)-3H-[1,2,3]triazolo [4,5-b]pyridin-5-amine]: not above 60 nM.

Staying with this test, now noted: MPO peroxidation assay IC50 values (binned), MPO peroxidation (Amplex Red), ranges given.
In turn, `Nc1cc(OCc2cn(-c3ccccc3)nn2)c2nn[nH]c2n1` [Example 4, 7-((1-Phenyl-1H-1,2,3-triazol-4-yl)methoxy)-3H-[1,2,3]triazolo[4,5-b]pyridin-5-amine] gave an IC50 of 60 to 150 nM. The same measure, in the same setting: next, `Cc1nn(-c2ccccc2)nc1COc1cc(N)nc2[nH]nnc12` [Example 21, 7-((5-Methyl-2-phenyl-2H-1,2,3-triazol-4-yl)methoxy)-3H-[1,2,3]triazolo [4,5-b]pyridin-5-amine]: not above 60 nM.

The record behind these values is US9920075B2, “Triazolopyridine and triazolopyrimidine inhibitors of myeloperoxidase” (BRISTOL-MYERS SQUIBB COMPANY, priority 2014, dated 2018).
